Measured values: ChEMBL document CHEMBL4002566, “S-substituted 3,5-dinitrophenyl 1,3,4-oxadiazole-2-thiols and tetrazole-5-thiols as highly efficient antitubercular agents” (Eur J Med Chem, 2017)
Values after ≈ are worked out from the molar mass of the structure shown.

Tests used:
Escherichia coli [1] = assay: Antibacterial activity against Escherichia coli ATCC 8739 after 24 hrs by broth microdilution method; type: functional; conditions: ATCC 8739, 24 h
Pseudomonas aeruginosa [2] = assay: Antibacterial activity against Pseudomonas aeruginosa ATCC 9027 after 48 hrs by broth microdilution method; type: functional; conditions: ATCC 9027, 48 h
Pichia kudriavzevii [3] = assay: Antifungal activity against Candida krusei E28 after 48 hrs by broth microdilution method; type: functional; conditions: E28, 48 h
Trichosporon asahii [4] = assay: Antifungal activity against Trichosporon asahii 1188 after 48 hrs by broth microdilution method; type: functional; conditions: Trichosporon asahii, 1188, 48 h
Klebsiella pneumoniae [5] = assay: Antibacterial activity against Klebsiella pneumoniae HK11750/08 after 24 hrs by broth microdilution method; type: functional; conditions: HK11750/08, 24 h
Pichia kudriavzevii [6] = assay: Antifungal activity against Candida krusei E28 after 24 hrs by broth microdilution method; type: functional; conditions: E28, 24 h
Klebsiella pneumoniae [7] = assay: Antibacterial activity against Klebsiella pneumoniae HK11750/08 after 48 hrs by broth microdilution method; type: functional; conditions: HK11750/08, 48 h
[8] = test system: Trichophyton mentagrophytes; assay: Antifungal activity against Trichophyton mentagrophytes 445 after 120 hrs by broth microdilution method; type: functional; conditions: Trichophyton mentagrophytes, 445, 120 h
[9] = test system: Mycobacterium tuberculosis; assay: Antimycobacterial activity against Mycobacterium tuberculosis CNCTC My 331/88 after 21 days by micromethod; type: functional; conditions: CNCTC My 331/88, 504 h
Mycobacterium kansasii [10] = assay: Antimycobacterial activity against Mycobacterium kansasii 6509/96 clinical isolate after 14 days by micromethod; type: functional; conditions: 6509/96, 336 h
Mycobacterium avium [11] = assay: Antimycobacterial activity against Mycobacterium avium CNCTC My 330/88 after 21 days by micromethod; type: functional; conditions: CNCTC My 330/88, 504 h
Enterococcus sp. [12] = assay: Antibacterial activity against Enterococcus sp. HK14365/08 after 24 hrs by broth microdilution method; type: functional; conditions: HK14365/08, 24 h
Staphylococcus aureus [13] = assay: Antibacterial activity against Staphylococcus aureus ATCC 6538 after 24 hrs by broth microdilution method; type: functional; conditions: ATCC 6538, 24 h
Klebsiella pneumoniae [14] = assay: Antibacterial activity against extended spectrum beta-lactamase producing Klebsiella pneumoniae HK14368/08 after 24 hrs by broth microdilution method; type: functional; conditions: HK14368/08, 24 h
Candida tropicalis [15] = assay: Antifungal activity against Candida tropicalis 156 after 24 hrs by broth microdilution method; type: functional; conditions: Candida tropicalis, 156, 24 h
Mycobacterium avium [16] = assay: Antimycobacterial activity against Mycobacterium avium CNCTC My 330/88 after 14 days by micromethod; type: functional; conditions: CNCTC My 330/88, 336 h
Trichosporon asahii [17] = assay: Antifungal activity against Trichosporon asahii 1188 after 24 hrs by broth microdilution method; type: functional; conditions: Trichosporon asahii, 1188, 24 h
A-431 = assay: Cytotoxicity against human A431 cells assessed as cell viability after 48 hrs by MTS assay; type: cell-based; conditions: A-431, 48 h
Aspergillus fumigatus [18] = assay: Antifungal activity against Aspergillus fumigatus 231 after 24 hrs by broth microdilution method; type: functional; conditions: Aspergillus fumigatus, 231, 24 h
[19] = Cytotoxicity against MDCK cells assessed as cell viability at 30 uM after 48 hrs by MTS assay relative to control; type: cell-based, Canis lupus familiaris; conditions: dog, read-out: Activity
[20] = test system: Staphylococcus epidermidis; assay: Antibacterial activity against Staphylococcus epidermidis HK6996/08 after 48 hrs by broth microdilution method; type: functional; conditions: HK6996/08, 48 h
Staphylococcus aureus [21] = assay: Antibacterial activity against methicillin-resistant Staphylococcus aureus HK5996/08 after 24 hrs by broth microdilution method; type: functional; conditions: HK5996/08, 24 h
[22] = Cytotoxicity against human HepG2 cells assessed as cell viability at 30 uM after 48 hrs by MTS assay relative to control; type: cell-based; conditions: read-out: Activity
Nakaseomyces glabratus [23] = assay: Antifungal activity against Candida glabrata 20/I after 48 hrs by broth microdilution method; type: functional
Aspergillus fumigatus [24] = assay: Antifungal activity against Aspergillus fumigatus 231 after 48 hrs by broth microdilution method; type: functional; conditions: Aspergillus fumigatus, 231, 48 h
MDCK = assay: Cytotoxicity against MDCK cells assessed as cell viability after 48 hrs by MTS assay; type: cell-based; conditions: Canis lupus familiaris
Klebsiella pneumoniae [25] = assay: Antibacterial activity against extended spectrum beta-lactamase producing Klebsiella pneumoniae HK14368/08 after 48 hrs by broth microdilution method; type: functional; conditions: HK14368/08, 48 h
Staphylococcus aureus [26] = assay: Antibacterial activity against Staphylococcus aureus ATCC 6538 after 48 hrs by broth microdilution method; type: functional; conditions: ATCC 6538, 48 h
Staphylococcus aureus [27] = assay: Antibacterial activity against methicillin-resistant Staphylococcus aureus HK5996/08 after 48 hrs by broth microdilution method; type: functional; conditions: HK5996/08, 48 h
Candida tropicalis [28] = assay: Antifungal activity against Candida tropicalis 156 after 48 hrs by broth microdilution method; type: functional; conditions: Candida tropicalis, 156, 48 h
Huh-7 = assay: Cytotoxicity against human HuH7 cells assessed as cell viability after 48 hrs by MTS assay; type: cell-based; conditions: Huh-7, 48 h
Pseudomonas aeruginosa [29] = assay: Antibacterial activity against Pseudomonas aeruginosa ATCC 9027 after 24 hrs by broth microdilution method; type: functional; conditions: ATCC 9027, 24 h
Lichtheimia corymbifera [30] = assay: Antifungal activity against Absidia corymbifera 272 after 24 hrs by broth microdilution method; type: functional; conditions: Lichtheimia corymbifera, 272, 24 h
Nakaseomyces glabratus [31] = assay: Antifungal activity against Candida glabrata 20/I after 24 hrs by broth microdilution method; type: functional
[32] = Selectivity index, ratio of IC50 for human HepG2 cells to MIC for Mycobacterium tuberculosis; type: toxicity; conditions: read-out: Selectivity Index
Mycobacterium kansasii [33] = assay: Antimycobacterial activity against Mycobacterium kansasii 6509/96 clinical isolate after 7 days by micromethod; type: functional; conditions: 6509/96, 168 h
Mycobacterium kansasii [34] = assay: Antimycobacterial activity against Mycobacterium kansasii 6509/96 clinical isolate after 21 days by micromethod; type: functional; conditions: 6509/96, 504 h
[35] = Cytotoxicity against human HuH7 cells assessed as cell viability at 30 uM after 48 hrs by MTS assay relative to control; type: cell-based, Huh-7; conditions: read-out: Activity
Mycobacterium kansasii [36] = assay: Antimycobacterial activity against Mycobacterium kansasii CNCTC My 235/80 after 21 days by micromethod; type: functional; conditions: CNCTC My 235/80, 504 h
[37] = test system: Staphylococcus epidermidis; assay: Antibacterial activity against Staphylococcus epidermidis HK6996/08 after 24 hrs by broth microdilution method; type: functional; conditions: HK6996/08, 24 h
HepG2 = assay: Cytotoxicity against human HepG2 cells assessed as cell viability after 48 hrs by MTS assay; type: cell-based; conditions: HepG2, 48 h
Enterococcus sp. [38] = assay: Antibacterial activity against Enterococcus sp. HK14365/08 after 48 hrs by broth microdilution method; type: functional; conditions: HK14365/08, 48 h
[39] = test system: Trichophyton mentagrophytes; assay: Antifungal activity against Trichophyton mentagrophytes 445 after 72 hrs by broth microdilution method; type: functional; conditions: Trichophyton mentagrophytes, 445, 72 h
[40] = test system: Mycobacterium tuberculosis; assay: Antimycobacterial activity against Mycobacterium tuberculosis CNCTC My 331/88 after 14 days by micromethod; type: functional; conditions: CNCTC My 331/88, 336 h
Mycobacterium kansasii [41] = assay: Antimycobacterial activity against Mycobacterium kansasii CNCTC My 235/80 after 7 days by micromethod; type: functional; conditions: CNCTC My 235/80, 168 h
Candida albicans [42] = assay: Antifungal activity against Candida albicans ATCC 44859 after 48 hrs by broth microdilution method; type: functional; conditions: ATCC 44859, 48 h
Lichtheimia corymbifera [43] = assay: Antifungal activity against Absidia corymbifera 272 after 48 hrs by broth microdilution method; type: functional; conditions: Lichtheimia corymbifera, 272, 48 h
[44] = Cytotoxicity against human A431 cells assessed as cell viability at 30 uM after 48 hrs by MTS assay relative to control; type: cell-based, A-431; conditions: read-out: Activity
Mycobacterium kansasii [45] = assay: Antimycobacterial activity against Mycobacterium kansasii CNCTC My 235/80 after 14 days by micromethod; type: functional; conditions: CNCTC My 235/80, 336 h
Candida albicans [46] = assay: Antifungal activity against Candida albicans ATCC 44859 after 24 hrs by broth microdilution method; type: functional; conditions: ATCC 44859, 24 h
Escherichia coli [47] = assay: Antibacterial activity against Escherichia coli ATCC 8739 after 48 hrs by broth microdilution method; type: functional; conditions: ATCC 8739, 48 h
[48] = test system: Mycobacterium tuberculosis; assay: Antimycobacterial activity against Mycobacterium tuberculosis after 14 days; type: functional; conditions: 336 h
[49] = test system: Mycobacterium tuberculosis; assay: Antimycobacterial activity against Mycobacterium tuberculosis by broth microdilution method; type: functional

O=[N+]([O-])c1cc(-c2nnc(SCc3ccccc3Cl)o2)cc([N+](=O)[O-])c1
MIC (Escherichia coli [1]): > 500 µM | MIC (Pseudomonas aeruginosa [2]): > 500 µM | MIC (Pichia kudriavzevii [3]): > 500 µM | MIC (Trichosporon asahii [4]): > 500 µM | MIC (Klebsiella pneumoniae [5]): > 500 µM | MIC (Pichia kudriavzevii [6]): > 500 µM | MIC (Klebsiella pneumoniae [7]): > 500 µM | MIC [8]: > 500 µM | MIC [9]: 0.03 µM (≈ 0.0118 µg/mL) | MIC (Mycobacterium kansasii [10]): 0.06 µM (≈ 0.0236 µg/mL) | MIC (Mycobacterium avium [11]): 8 µM (≈ 3.14 µg/mL) | MIC (Enterococcus sp. [12]): > 500 µM | MIC (Staphylococcus aureus [13]): > 500 µM | MIC (Klebsiella pneumoniae [14]): > 500 µM | MIC (Candida tropicalis [15]): > 500 µM | MIC (Mycobacterium avium [16]): 4 µM (≈ 1.57 µg/mL) | MIC (Trichosporon asahii [17]): > 500 µM | IC50 (A-431): > 30 µM | MIC (Aspergillus fumigatus [18]): > 500 µM | viability at 48 h, 30 µM [19]: 115% | MIC [20]: > 500 µM | MIC (Staphylococcus aureus [21]): > 500 µM | viability at 48 h, 30 µM [22]: 129% | MIC (Nakaseomyces glabratus [23]): > 500 µM | MIC (Aspergillus fumigatus [24]): > 500 µM | IC50 (MDCK): > 30 µM | MIC (Klebsiella pneumoniae [25]): > 500 µM | MIC (Staphylococcus aureus [26]): > 500 µM | MIC (Staphylococcus aureus [27]): > 500 µM | MIC (Candida tropicalis [28]): > 500 µM | IC50 (Huh-7): > 30 µM | MIC (Pseudomonas aeruginosa [29]): > 500 µM | MIC (Lichtheimia corymbifera [30]): > 500 µM | MIC (Nakaseomyces glabratus [31]): > 500 µM | selectivity ratio [32]: > 1000 | MIC (Mycobacterium kansasii [33]): 0.06 µM (≈ 0.0236 µg/mL) | MIC (Mycobacterium kansasii [34]): 0.125 µM (≈ 0.0491 µg/mL) | viability at 48 h, 30 µM [35]: 144% | MIC (Mycobacterium kansasii [36]): 0.125 µM (≈ 0.0491 µg/mL) | MIC [37]: > 500 µM | IC50 (HepG2): > 30 µM | MIC (Enterococcus sp. [38]): > 500 µM | MIC [39]: > 500 µM | MIC [40]: 0.03 µM (≈ 0.0118 µg/mL) | MIC (Mycobacterium kansasii [41]): 0.06 µM (≈ 0.0236 µg/mL) | MIC (Candida albicans [42]): > 500 µM | MIC (Lichtheimia corymbifera [43]): > 500 µM | viability at 48 h, 30 µM [44]: 91% | MIC (Mycobacterium kansasii [45]): 0.125 µM (≈ 0.0491 µg/mL) | MIC (Candida albicans [46]): > 500 µM | MIC (Escherichia coli [47]): > 500 µM

C[C@]1(COc2ccc(N3CCC(Oc4ccc(OC(F)(F)F)cc4)CC3)cc2)Cn2cc([N+](=O)[O-])nc2O1 [DELAMANID]
MIC [48]: 0.023 µM (≈ 0.0123 µg/mL)

CCC1Cn2cc([N+](=O)[O-])nc2O1 (stereo not drawn)
MIC [49]: 0.2 µM (≈ 0.0366 µg/mL)
